Structures can show the parent of a compound that is named as a salt.
How the values were obtained:
Type in all cases: binding
[1] = target: T1, Recombinant human integrin ανβ3 (Homo sapiens, UniProt P05106+P06756); assay: Solid Phase Receptor Assay (SPRA) for ανβ3 function; conditions: plate-bound human vitronectin; read-out: αvβ3 SPRA IC50
T1 construct: purchased R&D Systems 3050-AV
Experimental: C. Solid Phase Receptor Assay (SPRA) for ανβ3 Function
Wells were washed 3 times with 150 μL TBS+ and then 150 μL of blocking buffer (TBS+ with 1% bovine serum albumin, Sigma A7906) was added. The plate was incubated for 1 hr at 37° C. and then washed 3× with TBS+ buffer. […] Compounds were diluted to 20 μM and then 1 μL was added to each well of the plate according to a standard template with each sample repeated in triplicate. After incubation for two hours at room temperature, the plate was washed 3× with 150 μL of TBS+ buffer. To each well, 50 μL of biotinylated anti-αν antibody (R&D Systems, BAF1219) at 0.5 μg/mL in TBS+/0.1% BSA were added and the plate covered and incubated for 1 hr at room temperature. After washing the plate 3× with 150 μL of TBS+ buffer, 50 μL of streptavidin-conjugated horseradish peroxidase (R&D Systems, DY998) diluted in TBS+ blocking buffer were added to the wells and the plate incubated for 20 min at room temperature. The plate was washed 3× with TBS+ buffer followed by 50 μL of TMB substrate (Sigma, T4444) added to each well in the dark and the plate was incubated for 25 min at room temperature. 25 μL of 1.0 M phosphoric acid was added as a stop solution and the plates were read at 450 nm using a Spectramax plate reader.

[2] = target: T2, Recombinant human integrin ανβ6 (Homo sapiens, UniProt P06756+P18564); assay: Solid Phase Receptor Assay (SPRA) for ανβ6 function; conditions: plate-bound human LAP; read-out: αvβ6 SPRA IC50
T2 construct: purchased R&D Systems 3817-AV
Experimental: E. Solid Phase Receptor Assay (SPRA) for ανβ6 Function
Wells were washed 3 times with 150 μL TBS+, and then 150 μL of blocking buffer (TBS+ with 1% bovine serum albumin, Sigma A7906) was added. The plate was incubated for 1 hr at 37° C., and then washed 3× with TBS+ buffer. […] Compounds were diluted to 20 μM and then 1 μL was added to each well of the plate according to a standard template with each sample repeated in triplicate. After incubation for two hours at room temperature, the plate was washed 3× with 150 μL of TBS+ buffer. To each well, 50 μL of biotinylated anti-αν antibody (R&D Systems, BAF1219) at 0.5 μg/mL in TBS+/0.1% BSA were added and the plate was covered and incubated for 1 hr at room temperature. After washing the plate 3× with 150 μL of TBS+ buffer, 50 μL of streptavidin-conjugated horseradish peroxidase (R&D Systems, DY998) diluted in TBS+ blocking buffer were added to the wells and the plate incubated for 20 min at room temperature. The plate was washed 3× with TBS+ buffer followed by 50 μL of TMB substrate (Sigma T4444) added to each well in the dark and the plate incubated for 10 min at room temperature. 25 μL of 1.0 M phosphoric acid was added as a stop solution and the plates were read at 450 nm using a Spectramax plate reader.

[3] = target: T3, Recombinant human integrin ανβ8 (Homo sapiens, UniProt P06756+P26012); assay: Solid Phase Receptor Assay (SPRA) for ανβ8 function; conditions: plate-bound human LAP; read-out: αvβ8 SPRA IC50
T3 construct: purchased R&D Systems 4135-AV
Experimental: F. Solid Phase Receptor Assay (SPRA) for ανβ8 Function
Wells were washed 3 times with 150 μL TBS+ and then 150 μL of blocking buffer (TBS+ with 1% bovine serum albumin, Sigma A7906) was added. The plate was incubated for 1 hr at 37° C. and then washed 3× with TBS+. […] Compounds were diluted to 20 μM and 1 μL was added to each well of the plate according to a standard template with each sample repeated in triplicate. After incubation for two hours at room temperature, the plate was washed 3× with 150 μL of TBS+. To each well, 50 μL of biotinylated anti-αν antibody (R&D Systems, BAF1219) at 1 μg/mL in TBS+/0.1% BSA were added and the plate was covered and incubated for 1 hr at room temperature. After washing the plate 3× with 150 μL. of TBS+ buffer, 50 μL of streptavidin-conjugated horseradish peroxidase (R&D Systems, DY998) diluted in TBS+ blocking buffer were added to the wells and the plate incubated for 20 min at room temperature. The plate was washed 3× with TBS+ followed by 50 μL of TMB substrate (Sigma T4444) added to each well in the dark and the plate incubated for 10 min at room temperature. 25 μL of 1.0 M phosphoric acid was added as a stop solution and the plates were read at 450 nm using a Spectramax plate reader.

[4] = target: T4, Recombinant human integrin α5β1 (Homo sapiens, UniProt P05556+P08648); assay: Solid Phase Receptor Assay (SPRA) for α5β1 function; conditions: plate-bound human fibronectin
T4 construct: purchased R&D Systems 3230-A5
Experimental: A. Solid Phase Receptor Assay (SPRA) for α5β1 Function
Wells were washed 3 times with 150 μL TBS+ and then 150 μL of blocking buffer (TBS+ with 1% bovine serum albumin, Sigma A7906) was added. The plate was incubated for 1 hr at 37° C. and then washed 3× with TBS+ buffer. […] Compounds were diluted to 20 μM and then 1 μL was added to each well of the plate according to a standard template with each sample repeated in triplicate. After incubation for two hours at room temperature, the plate was washed 3× with 150 μL of TBS+ buffer. To each well, 50 μL of biotinylated anti-α5 antibody (R&D Systems, BAF1864) at 0.5 μg/mL in TBS+/0.1% BSA were added and the plate covered and incubated for 1 hr at room temperature. After washing the plate 3× with 150 μL of TBS+ buffer, 50 μL of streptavidin-conjugated horseradish peroxidase (R&D Systems, DY998) diluted in TBS+ blocking buffer were added to the wells and the plate incubated for 20 min at room temperature. The plate was washed 3× with TBS+ buffer followed by 50 μL of room temperature TMB substrate (Sigma, T4444) added to each well in the dark and the plate incubated for 25 min at room temperature. 25 μL of 1.0 M phosphoric acid was added as a stop solution and the plates were read at 450 nm using a Spectramax plate reader.

T1 sequence (P06756 31-992 limits assumed): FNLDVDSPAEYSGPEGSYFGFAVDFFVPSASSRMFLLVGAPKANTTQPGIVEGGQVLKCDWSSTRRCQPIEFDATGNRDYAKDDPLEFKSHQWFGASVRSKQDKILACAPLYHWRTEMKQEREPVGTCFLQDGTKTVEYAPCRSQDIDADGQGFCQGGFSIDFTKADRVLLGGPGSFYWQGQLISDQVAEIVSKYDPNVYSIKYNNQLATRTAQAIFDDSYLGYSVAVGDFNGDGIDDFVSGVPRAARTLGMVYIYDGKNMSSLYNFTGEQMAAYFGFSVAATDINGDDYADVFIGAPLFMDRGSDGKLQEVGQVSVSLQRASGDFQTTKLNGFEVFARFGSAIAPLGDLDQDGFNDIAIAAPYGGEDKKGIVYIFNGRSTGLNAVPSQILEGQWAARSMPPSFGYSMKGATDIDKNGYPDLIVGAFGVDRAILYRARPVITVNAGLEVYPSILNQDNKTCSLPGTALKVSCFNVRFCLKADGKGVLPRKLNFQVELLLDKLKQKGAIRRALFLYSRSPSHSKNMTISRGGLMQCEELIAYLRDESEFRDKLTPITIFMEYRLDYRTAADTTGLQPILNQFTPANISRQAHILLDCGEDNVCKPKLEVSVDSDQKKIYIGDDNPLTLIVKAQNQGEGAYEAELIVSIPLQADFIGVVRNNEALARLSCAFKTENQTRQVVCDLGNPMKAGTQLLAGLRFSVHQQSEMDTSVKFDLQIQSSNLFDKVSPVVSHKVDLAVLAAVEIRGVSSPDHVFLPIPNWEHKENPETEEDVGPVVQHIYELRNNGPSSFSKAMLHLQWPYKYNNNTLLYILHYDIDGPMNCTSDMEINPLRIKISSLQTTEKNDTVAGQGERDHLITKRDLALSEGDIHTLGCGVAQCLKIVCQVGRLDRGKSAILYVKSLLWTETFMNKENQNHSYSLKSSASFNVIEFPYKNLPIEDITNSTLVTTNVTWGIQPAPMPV
T1 sequence (P05106 27-718 limits assumed): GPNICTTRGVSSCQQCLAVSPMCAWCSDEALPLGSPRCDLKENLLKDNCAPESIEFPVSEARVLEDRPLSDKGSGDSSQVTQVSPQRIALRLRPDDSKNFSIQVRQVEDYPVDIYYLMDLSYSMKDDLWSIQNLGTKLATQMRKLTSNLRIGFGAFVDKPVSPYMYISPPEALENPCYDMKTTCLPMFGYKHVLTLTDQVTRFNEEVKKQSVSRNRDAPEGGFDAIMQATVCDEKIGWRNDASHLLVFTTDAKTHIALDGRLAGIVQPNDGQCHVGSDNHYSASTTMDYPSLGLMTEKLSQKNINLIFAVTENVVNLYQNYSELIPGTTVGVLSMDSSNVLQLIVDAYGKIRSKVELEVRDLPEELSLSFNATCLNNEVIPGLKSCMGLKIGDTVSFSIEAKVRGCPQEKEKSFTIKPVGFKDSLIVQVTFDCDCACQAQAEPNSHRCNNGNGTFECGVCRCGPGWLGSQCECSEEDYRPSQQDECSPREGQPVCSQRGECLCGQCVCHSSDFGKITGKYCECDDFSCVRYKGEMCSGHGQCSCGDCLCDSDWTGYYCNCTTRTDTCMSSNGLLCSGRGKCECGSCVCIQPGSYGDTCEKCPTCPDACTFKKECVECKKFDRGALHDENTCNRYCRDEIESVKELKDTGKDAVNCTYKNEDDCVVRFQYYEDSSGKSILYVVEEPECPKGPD
T3 sequence (P06756 31-992 limits assumed): as the sequence (P06756 31-992 limits assumed) above
T3 sequence (P26012 43-684 limits assumed): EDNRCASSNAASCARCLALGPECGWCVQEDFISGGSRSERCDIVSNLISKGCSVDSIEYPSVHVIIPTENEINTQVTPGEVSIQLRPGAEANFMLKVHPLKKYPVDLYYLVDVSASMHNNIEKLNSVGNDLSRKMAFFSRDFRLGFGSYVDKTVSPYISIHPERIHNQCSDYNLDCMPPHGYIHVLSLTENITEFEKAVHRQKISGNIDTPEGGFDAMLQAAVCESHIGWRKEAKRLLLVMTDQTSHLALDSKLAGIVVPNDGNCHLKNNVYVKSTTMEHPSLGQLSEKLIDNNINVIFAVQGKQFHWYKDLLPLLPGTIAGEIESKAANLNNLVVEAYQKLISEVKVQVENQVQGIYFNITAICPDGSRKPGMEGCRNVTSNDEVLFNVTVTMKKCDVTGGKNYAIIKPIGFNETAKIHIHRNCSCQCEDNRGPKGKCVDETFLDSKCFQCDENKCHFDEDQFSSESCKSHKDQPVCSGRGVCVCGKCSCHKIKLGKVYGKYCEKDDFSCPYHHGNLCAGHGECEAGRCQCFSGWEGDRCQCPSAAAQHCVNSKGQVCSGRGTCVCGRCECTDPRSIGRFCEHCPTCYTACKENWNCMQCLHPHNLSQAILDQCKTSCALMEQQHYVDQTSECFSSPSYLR
T2 sequence (P06756 31-992 limits assumed): as the sequence (P06756 31-992 limits assumed) above
T2 sequence (P18564 22-707 limits assumed): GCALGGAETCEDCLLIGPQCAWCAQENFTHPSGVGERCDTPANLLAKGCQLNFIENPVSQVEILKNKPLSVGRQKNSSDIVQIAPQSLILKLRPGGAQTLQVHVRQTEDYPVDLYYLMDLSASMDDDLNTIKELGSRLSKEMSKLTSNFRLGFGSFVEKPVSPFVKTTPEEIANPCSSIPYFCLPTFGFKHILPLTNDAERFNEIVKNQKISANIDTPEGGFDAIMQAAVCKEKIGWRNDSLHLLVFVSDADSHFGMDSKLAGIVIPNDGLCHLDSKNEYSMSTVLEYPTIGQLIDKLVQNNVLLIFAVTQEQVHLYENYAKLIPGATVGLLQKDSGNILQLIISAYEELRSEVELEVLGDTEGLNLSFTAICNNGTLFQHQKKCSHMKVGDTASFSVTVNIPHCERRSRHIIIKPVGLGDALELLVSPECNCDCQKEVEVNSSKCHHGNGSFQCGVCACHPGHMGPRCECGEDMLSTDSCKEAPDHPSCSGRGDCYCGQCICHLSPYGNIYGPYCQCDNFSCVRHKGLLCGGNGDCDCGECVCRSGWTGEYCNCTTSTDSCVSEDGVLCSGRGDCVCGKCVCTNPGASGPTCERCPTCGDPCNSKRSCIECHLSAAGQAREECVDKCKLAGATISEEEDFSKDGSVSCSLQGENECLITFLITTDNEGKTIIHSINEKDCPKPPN
T4 sequence (P08648 42-995 limits assumed): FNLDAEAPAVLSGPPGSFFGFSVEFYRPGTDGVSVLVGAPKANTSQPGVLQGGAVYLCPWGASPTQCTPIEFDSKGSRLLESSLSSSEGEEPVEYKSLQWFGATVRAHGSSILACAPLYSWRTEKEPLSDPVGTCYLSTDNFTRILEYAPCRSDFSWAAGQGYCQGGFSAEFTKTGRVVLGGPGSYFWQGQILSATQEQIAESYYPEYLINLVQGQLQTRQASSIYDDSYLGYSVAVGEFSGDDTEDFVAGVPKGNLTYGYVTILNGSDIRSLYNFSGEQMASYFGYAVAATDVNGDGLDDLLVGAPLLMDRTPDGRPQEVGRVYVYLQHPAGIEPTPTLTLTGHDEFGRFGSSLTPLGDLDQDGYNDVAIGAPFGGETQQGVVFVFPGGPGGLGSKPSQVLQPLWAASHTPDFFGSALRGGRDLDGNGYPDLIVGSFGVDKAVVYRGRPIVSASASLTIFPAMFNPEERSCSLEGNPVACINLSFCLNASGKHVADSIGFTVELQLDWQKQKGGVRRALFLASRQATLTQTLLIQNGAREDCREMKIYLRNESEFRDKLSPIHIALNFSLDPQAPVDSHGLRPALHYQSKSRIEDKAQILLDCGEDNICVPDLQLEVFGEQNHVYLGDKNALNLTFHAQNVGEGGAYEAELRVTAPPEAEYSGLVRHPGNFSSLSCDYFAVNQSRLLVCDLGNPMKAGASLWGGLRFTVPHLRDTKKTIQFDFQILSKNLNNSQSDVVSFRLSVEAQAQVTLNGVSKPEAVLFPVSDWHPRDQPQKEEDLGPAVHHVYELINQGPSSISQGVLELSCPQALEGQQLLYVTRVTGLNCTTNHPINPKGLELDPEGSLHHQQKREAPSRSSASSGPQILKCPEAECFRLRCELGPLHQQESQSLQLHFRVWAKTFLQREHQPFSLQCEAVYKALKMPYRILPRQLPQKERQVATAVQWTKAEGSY
T4 sequence (P05556 21-728 limits assumed): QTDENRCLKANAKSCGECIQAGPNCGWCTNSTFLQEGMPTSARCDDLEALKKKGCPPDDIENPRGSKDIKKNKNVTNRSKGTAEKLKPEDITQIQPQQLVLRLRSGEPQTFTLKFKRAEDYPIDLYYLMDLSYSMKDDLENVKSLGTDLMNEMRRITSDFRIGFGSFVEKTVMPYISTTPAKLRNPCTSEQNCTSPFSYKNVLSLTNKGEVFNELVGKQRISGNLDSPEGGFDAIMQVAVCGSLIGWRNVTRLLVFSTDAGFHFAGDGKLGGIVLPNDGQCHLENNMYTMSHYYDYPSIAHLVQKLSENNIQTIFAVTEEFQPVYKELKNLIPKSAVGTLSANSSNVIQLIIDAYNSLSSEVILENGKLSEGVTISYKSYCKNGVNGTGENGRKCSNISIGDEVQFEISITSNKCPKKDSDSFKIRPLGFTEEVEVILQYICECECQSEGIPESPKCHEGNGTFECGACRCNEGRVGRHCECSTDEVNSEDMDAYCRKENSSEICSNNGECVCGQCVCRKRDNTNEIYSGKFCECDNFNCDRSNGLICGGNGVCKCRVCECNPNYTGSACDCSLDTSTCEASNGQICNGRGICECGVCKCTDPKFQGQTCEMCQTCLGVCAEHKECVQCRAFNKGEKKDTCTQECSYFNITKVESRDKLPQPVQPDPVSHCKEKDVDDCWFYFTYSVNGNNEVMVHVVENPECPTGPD

COc1ccc(C(F)(F)F)cc1C(CC(=O)O)Cc1cc(OCCc2ccc3c(n2)NCCC3)n(C)n1 (centres unmarked) [Example 13, 3-(2-methoxy-5-(trifluoromethyl)phenyl)-4-(1-methyl-5-(2-(5,6,7,8-tetrahydro-1,8-naphthyridin-2-yl)ethoxy)-1H-pyrazol-3-yl)butanoic Acid Trifluoroacetate]
IC50 [1]: 11 nM
IC50 [2]: 51 nM
IC50 [3]: 26 nM
IC50 [4]: 59 nM

COc1ccc(Br)cc1C(CC(=O)O)Cc1cc(OCCc2ccc3c(n2)NCCC3)n(C)n1 (centres unmarked) [Example 14, 3-(5-bromo-2-methoxyphenyl)-4-(1-methyl-5-(2-(5,6,7,8-tetrahydro-1,8-naphthyridin-2-yl)ethoxy)-1H-pyrazol-3-yl)butanoic acid trifluoroacetate]
IC50 [1]: 6.7 nM
IC50 [2]: 22 nM
IC50 [3]: 12 nM
IC50 [4]: 44 nM

Cn1nc(CC(CC(=O)O)c2cc(C(C)(C)C)cc(C(F)(F)F)c2)cc1OCCc1ccc2c(n1)NCCC2 (centres unmarked) [Example 37, 3-[3-tert-butyl-5-(trifluoromethyl)phenyl]-4-[1-methyl-5-[2-(5,6,7,8-tetrahydro-1,8-naphthyridin-2-yl)ethoxyl]pyrazol-3-yl]butanoic Acid]
IC50 [1]: 7.3 nM
IC50 [2]: 140 nM
IC50 [3]: 18 nM
IC50 [4]: 7.9 nM

Cn1nc(CC(CC(=O)O)c2cc(C(F)(F)F)cc(C(C)(C)C(F)(F)F)c2)cc1OCCc1ccc2c(n1)NCCC2 (centres unmarked) [Example 25, 4-[1-methyl-5-[2-(5,6,7,8-tetrahydro-1,8-naphthyridin-2-yl)ethoxy]pyrazol-3-yl]-3-[3-(2,2,2-trifluoro-1,1-dimethylethyl)-5-(trifluoromethyl)phenyl]butanoic Acid]
IC50 [1]: 4.6 nM
IC50 [2]: 25 nM
IC50 [3]: 12 nM
IC50 [4]: 12 nM

Cn1nc(CC(CC(=O)O)c2cc(Br)cc(C(C)(C)C(F)(F)F)c2)cc1OCCc1ccc2c(n1)NCCC2 (centres unmarked) [Example 26, 3-[3-bromo-5-(2,2,2-trifluoro-1,1-dimethyl-ethyl)phenyl]-4-[1-methyl-5-[2-(5,6,7,8-tetrahydro-1,8-naphthyridin-2-yl)ethoxy]pyrazol-3-yl]butanoic Acid]
IC50 [1]: 9.6 nM
IC50 [2]: 45 nM
IC50 [3]: 9.3 nM
IC50 [4]: 16 nM

Cn1nc(CC(CC(=O)O)c2ccc3c(c2)OCCO3)cc1OCCc1ccc2c(n1)NCCC2 (centres unmarked) [Example 1, 3-(2,3-dihydrobenzo[b][1,4]dioxin-6-yl)-4-(1-methyl-5-(2-(5,6,7,8-tetrahydro-1,8-naphthyridin-2-yl)ethoxy)-1H-pyrazol-3-yl)butanoic Acid]
IC50 [1]: 5 nM
IC50 [2]: 35 nM
IC50 [3]: 52 nM
IC50 [4]: 229 nM

Cn1nc(CC(CC(=O)O)c2cc(F)cc(Cl)c2)cc1OCCc1ccc2c(n1)NCCC2 (centres unmarked) [Example 2, 3-(3-chloro-5-fluorophenyl)-4-(1-methyl-5-(2-(5,6,7,8-tetrahydro-1,8-naphthyridin-2-yl)ethoxy)-1H-pyrazol-3-yl)butanoic Acid]
IC50 [1]: 4 nM
IC50 [2]: 43 nM
IC50 [3]: 32 nM
IC50 [4]: 192 nM

Cn1nc(CC(CC(=O)O)c2cc(C#N)cc(C3(C(F)F)CC3)c2)cc1OCCc1ccc2c(n1)NCCC2 (centres unmarked) [Example 20, 3-(3-cyano-5-(1-(difluoromethyl)cyclopropyl)phenyl)-4-(1-methyl-5-(2-(5,6,7,8-tetrahydro-1,8-naphthyridin-2-yl)ethoxy)-1H-pyrazol-3-yl)butanoic Acid]
IC50 [1]: 3.6 nM
IC50 [2]: 17 nM
IC50 [3]: 14 nM
IC50 [4]: 5.5 nM

Cn1nc(CC(CC(=O)O)c2cc(C(C)(C)C)ccc2O)cc1OCCc1ccc2c(n1)NCCC2 (centres unmarked) [Example 42, 3-(5-tert-butyl-2-hydroxy-phenyl)-4-[1-methyl-5-[2-(5,6,7,8-tetrahydro-1,8-naphthyridin-2-yl)ethoxyl]pyrazol-3-yl]butanoic Acid Sodium Salt]
IC50 [1]: 18 nM
IC50 [2]: 20 nM
IC50 [3]: 3.1 nM
IC50 [4]: 2.1 nM

COc1ccc(C#N)cc1C(CC(=O)O)Cc1cc(OCCc2ccc3c(n2)NCCC3)n(C)n1 (centres unmarked) [Example 46, 3-(5-cyano-2-methoxyphenyl)-4-(1-methyl-5-(2-(5,6,7,8-tetrahydro-1,8-naphthyridin-2-yl)ethoxy)-1H-pyrazol-3-yl)butanoic Acid Trifluoroacetate]
IC50 [1]: 9.9 nM
IC50 [2]: 30 nM
IC50 [3]: 31 nM
IC50 [4]: 51 nM

Cn1nc(CC(CC(=O)O)c2cc(F)cc(C(C)(C)C)c2)cc1OCCc1ccc2c(n1)NCCC2 (centres unmarked) [Example 38, 3-(3-(tert-butyl)-5-fluorophenyl)-4-(1-methyl-5-(2-(5,6,7,8-tetrahydro-1,8-naphthyridin-2-yl)ethoxy)-1H-pyrazol-3-yl)butanoic Acid]
IC50 [1]: 7.9 nM
IC50 [2]: 110 nM
IC50 [3]: 140 nM
IC50 [4]: 23 nM

COc1ccc(C(N)=O)cc1C(CC(=O)O)Cc1cc(OCCc2ccc3c(n2)NCCC3)n(C)n1 (centres unmarked) [Example 47, 3-(5-carbamoyl-2-methoxyphenyl)-4-(1-methyl-5-(2-(5,6,7,8-tetrahydro-1,8-naphthyridin-2-yl)ethoxy)-1H-pyrazol-3-yl)butanoic Acid trifluoroacetate]
IC50 [1]: 4.9 nM
IC50 [2]: 77 nM
IC50 [3]: 3.6 nM
IC50 [4]: 13 nM

COc1ccc(C(CC(=O)O)Cc2cc(OCCc3ccc4c(n3)NCCC4)n(C)n2)cc1F (centres unmarked) [Example 3, 3-(3-fluoro-4-methoxyphenyl)-4-(1-methyl-5-(2-(5,6,7,8-tetrahydro-1,8-naphthyridin-2-yl)-ethoxy)-1H-pyrazol-3-yl)butanoic Acid]
IC50 [1]: 3 nM
IC50 [2]: 99 nM
IC50 [3]: 114 nM
IC50 [4]: 114 nM

Cn1nc(CC(CC(=O)O)c2cc(Br)cc(C3(C(F)F)CC3)c2)cc1OCCc1ccc2c(n1)NCCC2 (centres unmarked) [Example 19, 3-(3-bromo-5-(1-(difluoromethyl)cyclopropyl)phenyl)-4-(1-methyl-5-(2-(5,6,7,8-tetrahydro-1,8-naphthyridin-2-yl)ethoxy)-1H-pyrazol-3-yl)butanoic Acid]
IC50 [1]: 6.4 nM
IC50 [2]: 45 nM
IC50 [3]: 8.5 nM
IC50 [4]: 15 nM

From patent US11306084B2, “Integrin antagonists” (Saint Louis University, priority 2016, dated 2022)
